This is an account of results in ChEMBL document CHEMBL4387741, “Optimization of novel reversible Bruton's tyrosine kinase inhibitors identified using Tethering-fragment-based screens” (Bioorg Med Chem, 2019).

Experiment [1] deals with Cyclin-dependent kinase 8 (Homo sapiens) (UniProt P49336). Briefly: Inhibition of wild-type human partial length CDK8 (M1 to T360 residues) expressed in bacterial expression system at 1 uM by Kinomescan method relative to control.
Experiment [2] addresses Serine/threonine-protein kinase ULK3 (Homo sapiens) (UniProt Q6PHR2). The experiment in a line: Inhibition of wild-type human partial length ULK3 (M1 to Q290 residues) expressed in mammalian expression system at 1 uM by Kinomescan method relative to control.
The test system of experiment [3] is Receptor-type tyrosine-protein kinase FLT3 (Homo sapiens), P36888 [D835H]. The experiment in a line: Inhibition of human partial length FLT3 D835H mutant (V592 to Y969 residues) expressed in bacterial expression system at 1 uM by Kinomescan method relative to control.
The target in experiment [4] is Serine/threonine-protein kinase Nek3 (Homo sapiens) (UniProt P51956). The experiment in a line: Inhibition of wild-type human full length NEK3 (M1 to R506 residues) expressed in mammalian expression system at 1 uM by Kinomescan method relative to control.
For experiment [5], the target named is Inhibitor of nuclear factor kappa-B kinase subunit epsilon (Homo sapiens) (UniProt Q14164). The experiment in a line: Inhibition of wild-type human full length IKK-epsilon (M1 to V716 residues) expressed in mammalian expression system at 1 uM by Kinomescan method relative to control.
Experiment [6] concerns the target Receptor tyrosine-protein kinase erbB-3 (Homo sapiens) (UniProt P21860). Briefly: Inhibition of wild-type human partial length ERBB3 (G684 to A987 residues) expressed in mammalian expression system at 1 uM by Kinomescan method relative to control.
The target of experiment [7] is Homeodomain-interacting protein kinase 1 (Homo sapiens) (UniProt Q86Z02). Briefly: Inhibition of wild-type human partial length HIPK1 (M146 to I555 residues) expressed in mammalian expression system at 1 uM by Kinomescan method relative to control.
Experiment [8] has as its system Epidermal growth factor receptor (Homo sapiens), P00533 [UNDEFINED MUTATION]. The experiment in a line: Inhibition of human partial length EGFR E746-A750del mutant expressed in bacterial expression system at 1 uM by Kinomescan method relative to control.
Experiment [9] concerns the target Tyrosine-protein kinase Fer (Homo sapiens) (UniProt P16591). The experiment in a line: Inhibition of wild-type human partial length FER (S542 to T822 residues) expressed in bacterial expression system at 1 uM by Kinomescan method relative to control.
In experiment [10] the target is MAP kinase-activated protein kinase 2 (Homo sapiens) (UniProt P49137). The experiment in a line: Inhibition of wild-type human partial length MAPKAPK2 (V48 to D345 residues) expressed in bacterial expression system at 1 uM by Kinomescan method relative to control.
Experiment [11] addresses LIM domain kinase 2 (Homo sapiens) (UniProt P53671). Briefly: Inhibition of wild-type human full length LIMK2 (M1 to P638 residues) expressed in bacterial expression system at 1 uM by Kinomescan method relative to control.
Experiment [12] has as its system Mast/stem cell growth factor receptor Kit (Homo sapiens), P10721 [A829P]. The experiment in a line: Inhibition of human partial length KIT A829P mutant (I571 to D952 residues) expressed in mammalian expression system at 1 uM by Kinomescan method relative to control.
Experiment [13] addresses Serine/threonine-protein kinase RIO2 (Homo sapiens) (UniProt Q9BVS4). The experiment in a line: Inhibition of wild-type human partial length RIOK2 (M1 to D313 residues) expressed in mammalian expression system at 1 uM by Kinomescan method relative to control.
The target of experiment [14] is Tyrosine-protein kinase Fes/Fps (Homo sapiens) (UniProt P07332). The experiment in a line: Inhibition of wild-type human partial length FES (I527 to R822 residues) expressed in bacterial expression system at 10 uM by Kinomescan method relative to control.
Experiment [15] has as its target Dual specificity mitogen-activated protein kinase kinase 5 (Homo sapiens) (UniProt Q13163). The experiment in a line: Inhibition of wild-type human partial length MEK5 (L98 to P448 residues) expressed in mammalian expression system at 10 uM by Kinomescan method relative to control.
The target in experiment [16] is G protein-coupled receptor kinase 4 (Homo sapiens) (UniProt P32298). Briefly: Inhibition of wild-type human full length GRK4 (M1 to C578 residues) expressed in bacterial expression system at 10 uM by Kinomescan method relative to control.
Experiment [17] has as its target Serine/threonine-protein kinase ULK3 (Homo sapiens) (UniProt Q6PHR2). The experiment in a line: Inhibition of wild-type human partial length ULK3 (M1 to Q290 residues) expressed in mammalian expression system at 10 uM by Kinomescan method relative to control.
For experiment [18], the target named is Phosphatidylinositol 3-kinase catalytic subunit type 3 (Homo sapiens) (UniProt Q8NEB9). The experiment in a line: Inhibition of wild-type human partial length VPS34 (S282 to H879 residues) expressed in mammalian expression system at 10 uM by Kinomescan method relative to control.
Experiment [19] concerns the target Serine/threonine-protein kinase TAO2 (Homo sapiens) (UniProt Q9UL54). The experiment in a line: Inhibition of wild-type human partial length TAOK2 (M1 to A320 residues) expressed in mammalian expression system at 10 uM by Kinomescan method relative to control.
The target in experiment [20] is Serine/threonine-protein kinase ULK1 (Homo sapiens) (UniProt O75385). Briefly: Inhibition of wild-type human partial length ULK1 (M1 to T309 residues) expressed in mammalian expression system at 10 uM by Kinomescan method relative to control.
Experiment [21] addresses Ephrin type-A receptor 7 (Homo sapiens) (UniProt Q15375). Briefly: Inhibition of wild-type human partial length EPHA7 (Y608 to S912 residues) expressed in bacterial expression system at 10 uM by Kinomescan method relative to control.
Experiment [22] concerns the target Ephrin type-A receptor 4 (Homo sapiens) (UniProt P54764). The experiment in a line: Inhibition of wild-type human partial length EPHA4 (T601 to R897 residues) expressed in bacterial expression system at 10 uM by Kinomescan method relative to control.
Experiment [23] deals with Protein-tyrosine kinase 6 (Homo sapiens) (UniProt Q13882). The experiment in a line: Inhibition of wild-type human partial length BRK (L166 to T451 residues) expressed in bacterial expression system at 10 uM by Kinomescan method relative to control.
Experiment [24] concerns the target Ribosomal protein S6 kinase alpha-6 (Homo sapiens) (UniProt Q9UK32). The experiment in a line: Inhibition of wild-type human partial length C-terminal RSK4 kinase domain 2 (I401 to Y711 residues) expressed in bacterial expression system at 10 uM by Kinomescan method relative to control.
For experiment [25], the target named is Ribosomal protein S6 kinase alpha-4 (Homo sapiens) (UniProt O75676). Briefly: Inhibition of wild-type human partial length N-terminal RPS6KA4 kinase domain 1 expressed in bacterial expression system at 10 uM by Kinomescan method relative to control.
In experiment [26] the target is Serine/threonine-protein kinase 17A (Homo sapiens) (UniProt Q9UEE5). Briefly: Inhibition of wild-type human partial length DRAK1 (R32 to E363 residues) expressed in bacterial expression system at 10 uM by Kinomescan method relative to control.
In experiment [27] the target is Serine/threonine-protein kinase ULK2 (Homo sapiens) (UniProt Q8IYT8). Briefly: Inhibition of wild-type human partial length ULK2 (M1 to S301 residues) expressed in mammalian expression system at 10 uM by Kinomescan method relative to control.

Serine/threonine-protein kinase ULK3 (Homo sapiens), sequence (Q6PHR2 whole entry, the tested form may be a part): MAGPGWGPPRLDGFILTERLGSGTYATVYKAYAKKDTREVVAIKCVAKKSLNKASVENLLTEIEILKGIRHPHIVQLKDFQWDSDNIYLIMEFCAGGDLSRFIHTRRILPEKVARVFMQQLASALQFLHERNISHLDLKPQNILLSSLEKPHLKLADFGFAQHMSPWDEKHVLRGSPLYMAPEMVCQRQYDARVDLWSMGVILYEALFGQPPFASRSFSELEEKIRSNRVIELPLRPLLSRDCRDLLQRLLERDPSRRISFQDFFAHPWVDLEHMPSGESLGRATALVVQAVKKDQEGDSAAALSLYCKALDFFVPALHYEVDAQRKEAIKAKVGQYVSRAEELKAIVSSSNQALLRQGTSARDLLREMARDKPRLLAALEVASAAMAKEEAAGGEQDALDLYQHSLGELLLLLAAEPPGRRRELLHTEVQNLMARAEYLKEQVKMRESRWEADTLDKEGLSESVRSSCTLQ
Homeodomain-interacting protein kinase 1 (Homo sapiens), sequence (Q86Z02 whole entry, looked up, the tested form may be a part): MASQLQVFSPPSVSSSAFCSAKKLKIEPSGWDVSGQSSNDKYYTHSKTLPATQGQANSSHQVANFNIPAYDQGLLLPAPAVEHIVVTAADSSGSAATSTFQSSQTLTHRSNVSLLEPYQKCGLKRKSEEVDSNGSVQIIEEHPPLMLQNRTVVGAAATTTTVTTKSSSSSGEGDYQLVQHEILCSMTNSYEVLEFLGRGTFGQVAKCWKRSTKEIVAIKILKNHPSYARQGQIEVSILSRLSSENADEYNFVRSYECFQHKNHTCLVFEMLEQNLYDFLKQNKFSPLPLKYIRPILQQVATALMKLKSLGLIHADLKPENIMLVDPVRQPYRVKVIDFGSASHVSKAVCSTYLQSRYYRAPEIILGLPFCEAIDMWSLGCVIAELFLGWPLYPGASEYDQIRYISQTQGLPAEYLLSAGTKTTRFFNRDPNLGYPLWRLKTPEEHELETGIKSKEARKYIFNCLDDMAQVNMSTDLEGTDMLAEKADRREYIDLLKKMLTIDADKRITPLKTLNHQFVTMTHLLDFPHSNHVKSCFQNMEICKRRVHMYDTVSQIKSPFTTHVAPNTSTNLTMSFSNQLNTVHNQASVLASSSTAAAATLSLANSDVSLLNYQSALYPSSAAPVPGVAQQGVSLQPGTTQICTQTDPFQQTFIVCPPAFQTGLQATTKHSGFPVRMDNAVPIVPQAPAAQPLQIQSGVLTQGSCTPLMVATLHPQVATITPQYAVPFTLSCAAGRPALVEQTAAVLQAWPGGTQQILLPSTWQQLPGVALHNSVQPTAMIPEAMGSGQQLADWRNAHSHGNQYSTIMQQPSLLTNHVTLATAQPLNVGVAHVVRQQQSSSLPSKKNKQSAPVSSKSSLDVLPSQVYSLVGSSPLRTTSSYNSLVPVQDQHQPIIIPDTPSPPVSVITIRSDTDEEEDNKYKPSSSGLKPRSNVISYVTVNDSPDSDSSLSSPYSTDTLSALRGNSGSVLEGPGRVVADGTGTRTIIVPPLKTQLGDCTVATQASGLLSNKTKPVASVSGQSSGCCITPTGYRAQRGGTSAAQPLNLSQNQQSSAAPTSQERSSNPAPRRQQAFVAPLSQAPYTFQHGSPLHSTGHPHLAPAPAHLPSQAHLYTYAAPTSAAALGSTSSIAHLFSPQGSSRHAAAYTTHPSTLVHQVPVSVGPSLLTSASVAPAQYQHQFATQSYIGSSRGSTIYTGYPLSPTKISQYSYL
Tyrosine-protein kinase Fer (Homo sapiens), sequence (P16591 whole entry, looked up, the tested form may be a part): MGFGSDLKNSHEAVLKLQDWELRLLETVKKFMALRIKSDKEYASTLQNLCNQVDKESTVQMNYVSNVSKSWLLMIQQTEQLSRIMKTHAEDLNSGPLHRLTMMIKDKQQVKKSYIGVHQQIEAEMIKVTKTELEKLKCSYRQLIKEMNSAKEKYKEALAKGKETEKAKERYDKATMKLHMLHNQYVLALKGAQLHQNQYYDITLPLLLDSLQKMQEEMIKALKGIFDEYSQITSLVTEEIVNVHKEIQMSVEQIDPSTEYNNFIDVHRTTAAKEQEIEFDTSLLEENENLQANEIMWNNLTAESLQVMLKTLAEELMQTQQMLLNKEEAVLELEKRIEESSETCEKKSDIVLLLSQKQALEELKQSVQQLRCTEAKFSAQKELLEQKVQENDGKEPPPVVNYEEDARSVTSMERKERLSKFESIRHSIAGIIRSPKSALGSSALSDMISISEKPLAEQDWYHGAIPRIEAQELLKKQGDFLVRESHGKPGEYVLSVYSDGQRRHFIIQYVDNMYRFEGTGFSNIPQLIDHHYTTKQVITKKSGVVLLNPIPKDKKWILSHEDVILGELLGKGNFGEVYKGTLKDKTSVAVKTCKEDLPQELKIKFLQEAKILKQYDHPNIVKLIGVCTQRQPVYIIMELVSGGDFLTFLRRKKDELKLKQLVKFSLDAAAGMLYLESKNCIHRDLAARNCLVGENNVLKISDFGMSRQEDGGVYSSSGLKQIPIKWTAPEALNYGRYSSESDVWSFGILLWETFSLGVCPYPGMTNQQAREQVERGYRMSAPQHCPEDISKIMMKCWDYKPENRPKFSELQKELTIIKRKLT
Phosphatidylinositol 3-kinase catalytic subunit type 3 (Homo sapiens), sequence (Q8NEB9 whole entry, the tested form may be a part): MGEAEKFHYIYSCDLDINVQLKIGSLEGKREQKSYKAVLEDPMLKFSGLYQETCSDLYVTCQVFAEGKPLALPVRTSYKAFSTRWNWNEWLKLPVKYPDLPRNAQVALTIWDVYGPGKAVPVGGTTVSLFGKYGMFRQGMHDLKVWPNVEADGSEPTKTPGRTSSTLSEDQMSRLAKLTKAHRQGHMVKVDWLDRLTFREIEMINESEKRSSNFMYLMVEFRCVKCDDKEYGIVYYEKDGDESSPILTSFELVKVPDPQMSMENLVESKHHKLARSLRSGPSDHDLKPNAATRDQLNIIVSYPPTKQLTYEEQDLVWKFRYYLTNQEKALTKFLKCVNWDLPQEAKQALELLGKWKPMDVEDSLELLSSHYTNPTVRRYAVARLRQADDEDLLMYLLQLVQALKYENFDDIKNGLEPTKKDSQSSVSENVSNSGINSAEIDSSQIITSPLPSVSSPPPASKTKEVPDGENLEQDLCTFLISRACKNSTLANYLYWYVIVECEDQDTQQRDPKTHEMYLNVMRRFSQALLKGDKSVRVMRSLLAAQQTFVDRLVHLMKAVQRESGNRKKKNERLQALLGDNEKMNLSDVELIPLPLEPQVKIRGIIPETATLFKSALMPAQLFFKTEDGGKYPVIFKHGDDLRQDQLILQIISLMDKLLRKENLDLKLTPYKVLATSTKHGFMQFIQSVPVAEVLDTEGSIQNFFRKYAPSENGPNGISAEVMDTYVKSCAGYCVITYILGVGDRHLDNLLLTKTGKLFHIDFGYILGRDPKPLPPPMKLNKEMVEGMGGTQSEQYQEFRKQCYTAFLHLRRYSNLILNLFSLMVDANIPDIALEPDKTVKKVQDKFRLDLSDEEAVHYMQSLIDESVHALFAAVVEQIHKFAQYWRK
Ribosomal protein S6 kinase alpha-6 (Homo sapiens), sequence (Q9UK32 whole entry, the tested form may be a part): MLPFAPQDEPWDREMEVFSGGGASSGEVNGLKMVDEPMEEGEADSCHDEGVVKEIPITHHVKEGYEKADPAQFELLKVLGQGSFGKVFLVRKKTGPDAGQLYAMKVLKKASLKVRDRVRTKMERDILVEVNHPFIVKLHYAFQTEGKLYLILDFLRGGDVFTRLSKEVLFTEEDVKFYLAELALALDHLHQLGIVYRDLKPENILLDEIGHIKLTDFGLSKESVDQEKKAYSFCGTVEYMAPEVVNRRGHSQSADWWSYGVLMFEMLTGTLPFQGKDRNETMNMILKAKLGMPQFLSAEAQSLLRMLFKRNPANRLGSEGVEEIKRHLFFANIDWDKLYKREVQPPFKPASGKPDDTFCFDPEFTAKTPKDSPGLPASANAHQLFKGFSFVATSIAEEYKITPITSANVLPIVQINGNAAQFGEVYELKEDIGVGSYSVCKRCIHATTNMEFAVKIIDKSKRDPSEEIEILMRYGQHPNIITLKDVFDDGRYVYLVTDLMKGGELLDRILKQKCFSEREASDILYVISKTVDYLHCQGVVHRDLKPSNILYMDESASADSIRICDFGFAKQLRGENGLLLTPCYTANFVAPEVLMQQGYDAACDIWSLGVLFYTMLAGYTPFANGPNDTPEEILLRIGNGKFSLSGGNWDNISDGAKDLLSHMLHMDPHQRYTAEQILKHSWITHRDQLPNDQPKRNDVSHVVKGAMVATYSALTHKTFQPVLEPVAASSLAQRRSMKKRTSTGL
Cyclin-dependent kinase 8 (Homo sapiens), sequence (P49336 whole entry, the tested form may be a part): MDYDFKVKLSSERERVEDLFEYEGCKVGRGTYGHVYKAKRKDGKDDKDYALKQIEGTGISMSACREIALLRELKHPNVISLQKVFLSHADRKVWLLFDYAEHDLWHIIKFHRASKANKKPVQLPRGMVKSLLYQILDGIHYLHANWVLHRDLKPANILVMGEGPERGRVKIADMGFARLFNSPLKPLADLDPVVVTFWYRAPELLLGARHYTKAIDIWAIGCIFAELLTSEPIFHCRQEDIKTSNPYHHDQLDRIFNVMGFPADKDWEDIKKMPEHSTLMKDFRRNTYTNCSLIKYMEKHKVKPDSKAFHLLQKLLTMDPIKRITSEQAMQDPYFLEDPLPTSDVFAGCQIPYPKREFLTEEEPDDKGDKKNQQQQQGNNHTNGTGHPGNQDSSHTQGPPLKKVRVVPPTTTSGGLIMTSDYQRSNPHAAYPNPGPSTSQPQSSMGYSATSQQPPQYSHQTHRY
Dual specificity mitogen-activated protein kinase kinase 5 (Homo sapiens), sequence (Q13163 whole entry, the tested form may be a part): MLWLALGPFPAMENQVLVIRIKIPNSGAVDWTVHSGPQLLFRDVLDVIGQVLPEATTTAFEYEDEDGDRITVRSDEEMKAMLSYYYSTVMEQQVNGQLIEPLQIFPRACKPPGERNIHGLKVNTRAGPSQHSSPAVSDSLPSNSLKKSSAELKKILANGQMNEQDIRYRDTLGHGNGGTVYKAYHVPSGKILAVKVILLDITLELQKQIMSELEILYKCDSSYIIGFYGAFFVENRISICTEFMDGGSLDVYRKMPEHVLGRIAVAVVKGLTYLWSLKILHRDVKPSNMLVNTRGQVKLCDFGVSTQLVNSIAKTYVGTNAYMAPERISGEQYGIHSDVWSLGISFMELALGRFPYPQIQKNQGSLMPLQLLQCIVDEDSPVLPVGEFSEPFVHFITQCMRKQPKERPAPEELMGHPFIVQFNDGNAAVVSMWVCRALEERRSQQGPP

As to `O=C(Nc1cccc([C@@H]2CN(c3ncnc4[nH]ccc34)CCN2CCO)c1)Nc1c(F)cccc1N1CCCC1`, the inhibition in [1] is 84%; in experiment [2], 11%; in experiment [3], 9.6%; in experiment [4] it was 65%; in [5] it was 96%; in experiment [6], 74%. Besides, the inhibition was found to be 80% in experiment [7]; 97% in [8]; 82% in experiment [9]; 100% in [10]; 100% in [11]; 28% in [12]. Further, the inhibition in experiment [13] was found to be 92%.
For the molecule `O=C(Nc1cccc([C@H]2CCCN(c3ncnc4[nH]ccc34)C2)c1)Nc1ccccc1N1CCCC1`, the inhibition in [14] is 99%; in experiment [15], 18%; in [16], 7.4%; in experiment [17] it was 6.2%; in [18], 52%; in experiment [19] it was 100%. Further, the inhibition in experiment [20] turned out to be 37%; in experiment [21], 72%; in experiment [22] it was 98%; in [23], 100%; in [24] it was 50%; in experiment [25] it was 77%. Besides, the inhibition was 46% in experiment [26] and 50% in experiment [27].
